Several values for one entry are separate records, joined by “and”; a condition that tells them apart may be missing. Equal values may be shown once. Read-outs that look alike come from different tables or passages of the source.
Assays:
[1] = system: Plasmodium berghei (P. berghei); assay: Peters' four-day inhibition method, P. berghei murine malaria model; type: in vivo, ICR mice; settings: individual mice
Method: In vivo evaluation of antimalarial activity was performed using the classical Peters’ four-day inhibition method. A murine malaria model was constructed by intraperitoneal injection of 5.00 × 10^7 Plasmodium yoelii (P. yoelii)- or Plasmodium berghei (P. berghei)-infected erythrocytes. […] Mice were gavaged once 4 hours after infection with medicated soybean oil or the test drug (gavage standard was 0.20 mL/10 g), and the drug was administered orally for 4 consecutive days. Four hours after the last dose, blood was collected from the tail tip of the mice to make a thin blood smear. The smear was air-dried, fixed in methanol, stained with Giemsa for 30 minutes, then rinsed with distilled water, air-dried at room temperature, and visualized for malaria infection under a microscope (OLYMPUS BX43) at 100x oil immersion. The inhibition ratio (%) for each group was calculated using the following equations:
Inhibitionratio(%)=(infectionratiocontrolgroup−infectionratiotreatmentgroup)/infectionratiocontrolgroup×100

Caco-2 cells = assay: Cytotoxicity in Caco-2 cells, CCK-8 assay; type: cell-based, human; settings: for Cell survival rate%: mean; for cck-8 mean (survival fraction): mean of 6
Summary of the method: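 Caco-2 cells, pre-grown 48 h, were exposed to compounds for 48 h at 37 °C with 0.05% v/v DMSO final. Viability was measured by CCK-8 (2 h, absorbance 450 nm) relative to negative-control cells.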

[2] = Stability of the five compounds in SD rat plasma (QC samples, UHPLC-ESI-MS/MS); type: in vitro ADME; settings: for 3 freeze-thaw cycles mean ± SD / 7 days at -80°C mean ± SD / Room temperature 24h mean ± SD: SD rat plasma QC sample; for stability, Accuracy (measured versus nominal concentration) / stability, mean ± SD (measured concentration): SD rat plasma, n=5
[3] = male, Sprague Dawley, rat, in vivo
in vivo = settings: male, Sprague Dawley, rat, po; for MRT last: MRT(0-t); for MRT inf: MRT(0-∞)
[4] = Caco-2, concentration 10 μmol/L
[5] = Caco-2, concentration 20 μmol/L
[6] = Caco-2, concentration 40 μmol/L
[7] = Caco-2, concentration 80 μmol/L
[8] = nominal 40 ng/mL, 3 freeze-thaw cycles
[9] = nominal 40 ng/mL, 7 days at -80°C
[10] = nominal 1000 ng/mL, 3 freeze-thaw cycles
[11] = nominal 1000 ng/mL, 7 days at -80°C
[12] = nominal 5000 ng/mL, 3 freeze-thaw cycles
[13] = nominal 5000 ng/mL, 7 days at -80°C
[14] = nominal 40 ng/mL, Room temperature 24h
[15] = nominal 1000 ng/mL, Room temperature 24h
[16] = nominal 5000 ng/mL, Room temperature 24h

## C[C@@H]1CC[C@H]2[C@@H](C)C(=O)O[C@@H]3O[C@@]4(C)CC[C@@H]1[C@]32OO4 [ART, Artemisinin, reference compound]
[1]; 5.68 mg/kg
  parasitemia%: 73.4143% and 71.7174% and 72.6074% and 72.7168% and 72.6183%
[1]; 11.368 mg/kg
  parasitemia%: 41.4175% and 45.3752% and 36.8615% and 43.5062% and 35.724%
[1]; 22.736 mg/kg
  parasitemia%: 2.697% and 7.338% and 4.202% and 2.082% and 5.536%
Caco-2 cells; Caco-2, 5μmol/L
  Cell survival rate%, single replicate: 82.52% and 83.77% and 87.9% and 78.48% and 85.79% and 77.82%
Caco-2 cells; Caco-2, 10μmol/L
  Cell survival rate%, single replicate: 91.57% and 89.14% and 82.1% and 68.6% and 78.83% and 84.29%
Caco-2 cells; Caco-2, 20μmol/L
  Cell survival rate%, single replicate: 80.46% and 80.92% and 80.32% and 81.46% and 82.88% and 85.89%
Caco-2 cells; Caco-2, 40μmol/L
  Cell survival rate%, single replicate: 70.44% and 87.86% and 77.89% and 75.6% and 92.55% and 87.29%
Caco-2 cells; Caco-2, 80μmol/L
  Cell survival rate%, single replicate: 82.12% and 82.82% and 84.32% and 77.9% and 76.8% and 84.01%
Caco-2 cells; Caco-2, concentration 5 μmol/L
  cck-8 cell survival as fraction, single replicate: 0.8252 and 0.8377 and 0.879 and 0.7848 and 0.8579 and 0.7782
  Cell survival rate%: 82.71%
  cck-8 mean (survival fraction): 0.827
Caco-2 cells; [4]
  cck-8 cell survival as fraction, single replicate: 0.9157 and 0.8914 and 0.821 and 0.686 and 0.7883 and 0.8429
  Cell survival rate%: 82.42%
  cck-8 mean (survival fraction): 0.824
Caco-2 cells; [5]
  cck-8 cell survival as fraction, single replicate: 0.8046 and 0.8092 and 0.8032 and 0.8146 and 0.8288 and 0.8589
  Cell survival rate%: 81.99%
  cck-8 mean (survival fraction): 0.820
Caco-2 cells; [6]
  cck-8 cell survival as fraction, single replicate: 0.7044 and 0.8786 and 0.7789 and 0.756 and 0.9255 and 0.8729
  Cell survival rate%: 81.94%
  cck-8 mean (survival fraction): 0.819
Caco-2 cells; [7]
  cck-8 cell survival as fraction, single replicate: 0.8212 and 0.8282 and 0.8432 and 0.779 and 0.768 and 0.8401
  Cell survival rate%: 81.33%
  cck-8 mean (survival fraction): 0.813
[2]; 3 freeze-thaw cycles, QC concentration 40 ng/mL
  Stability in plasma, measured concentration (mean ± SD): 38.5 ± 2.35 ng/mL
[2]; 3 freeze-thaw cycles, QC concentration 1000 ng/mL
  Stability in plasma, measured concentration (mean ± SD): 1053 ± 29.9 ng/mL
[2]; 3 freeze-thaw cycles, QC concentration 5000 ng/mL
  Stability in plasma, measured concentration (mean ± SD): 4629 ± 113 ng/mL
[2]; 7 days at -80°C, QC concentration 40 ng/mL
  Stability in plasma, measured concentration (mean ± SD): 40.3 ± 0.80 ng/mL
[2]; 7 days at -80°C, QC concentration 1000 ng/mL
  Stability in plasma, measured concentration (mean ± SD): 1051 ± 29.5 ng/mL
[2]; 7 days at -80°C, QC concentration 5000 ng/mL
  Stability in plasma, measured concentration (mean ± SD): 4673 ± 65.9 ng/mL
[2]; QC sample 40 ng/mL, 3 freeze-thaw cycles
  Stability, measured concentration, mean ± SD: 38.5 ± 2.35 ng/mL
[2]; QC sample 40 ng/mL, 7 days at -80°C
  Stability, measured concentration, mean ± SD: 40.3 ± 0.80 ng/mL
[2]; QC sample 40 ng/mL, Room temperature 24h
  Stability, measured concentration, mean ± SD: 41.1 ± 1.49 ng/mL
[2]; QC sample 1000 ng/mL, 3 freeze-thaw cycles
  Stability, measured concentration, mean ± SD: 1053 ± 29.9 ng/mL
[2]; QC sample 1000 ng/mL, 7 days at -80°C
  Stability, measured concentration, mean ± SD: 1051 ± 29.5 ng/mL
[2]; QC sample 1000 ng/mL, Room temperature 24h
  Stability, measured concentration, mean ± SD: 1070 ± 40.9 ng/mL
[2]; QC sample 5000 ng/mL, 3 freeze-thaw cycles
  Stability, measured concentration, mean ± SD: 4629 ± 113 ng/mL
[2]; QC sample 5000 ng/mL, 7 days at -80°C
  Stability, measured concentration, mean ± SD: 4673 ± 65.9 ng/mL
[2]; QC sample 5000 ng/mL, Room temperature 24h
  Stability, measured concentration, mean ± SD: 5229 ± 418 ng/mL
[2]; Room temperature 24h, QC concentration 40 ng/mL
  Stability in plasma, measured concentration (mean ± SD): 41.1 ± 1.49 ng/mL
[2]; Room temperature 24h, QC concentration 1000 ng/mL
  Stability in plasma, measured concentration (mean ± SD): 1070 ± 40.9 ng/mL
[2]; Room temperature 24h, QC concentration 5000 ng/mL
  Stability in plasma, measured concentration (mean ± SD): 5229 ± 418 ng/mL
[2]; [8]
  3 freeze-thaw cycles mean ± SD: 38.5 ± 2.35 ng/mL
  stability, Accuracy (measured versus nominal concentration): 96.14%
  stability, mean ± SD (measured concentration): 38.5 ± 2.35 ng/mL and 38.46 ng/mL
[2]; [9]
  7 days at -80°C mean ± SD: 40.3 ± 0.80 ng/mL
  stability, Accuracy (measured versus nominal concentration): 100.80%
  stability, mean ± SD (measured concentration): 40.3 ± 0.80 ng/mL and 40.32 ng/mL
[2]; nominal 40 ng/mL
  Room temperature 24h mean ± SD: 41.1 ± 1.49 ng/mL
[2]; [10]
  3 freeze-thaw cycles mean ± SD: 1053 ± 29.9 ng/mL
  stability, Accuracy (measured versus nominal concentration): 105.28%
  stability, mean ± SD (measured concentration): 1053 ± 29.9 ng/mL and 1052.79 ng/mL
[2]; [11]
  7 days at -80°C mean ± SD: 1051 ± 29.5 ng/mL
  stability, Accuracy (measured versus nominal concentration): 105.14%
  stability, mean ± SD (measured concentration): 1051 ± 29.5 ng/mL and 1051.42 ng/mL
[2]; nominal 1000 ng/mL
  Room temperature 24h mean ± SD: 1070 ± 40.9 ng/mL
[2]; [12]
  3 freeze-thaw cycles mean ± SD: 4629 ± 113 ng/mL
  stability, Accuracy (measured versus nominal concentration): 92.59%
  stability, mean ± SD (measured concentration): 4629 ± 113 ng/mL and 4629.47 ng/mL
[2]; [13]
  7 days at -80°C mean ± SD: 4673 ± 65.9 ng/mL
  stability, Accuracy (measured versus nominal concentration): 93.45%
  stability, mean ± SD (measured concentration): 4673 ± 65.9 ng/mL and 4672.51 ng/mL
[2]; nominal 5000 ng/mL
  Room temperature 24h mean ± SD: 5229 ± 418 ng/mL
[2]; [14]
  stability, Accuracy (measured versus nominal concentration): 102.70%
  stability, mean ± SD (measured concentration): 41.1 ± 1.49 ng/mL and 41.08 ng/mL
[2]; [15]
  stability, Accuracy (measured versus nominal concentration): 106.95%
  stability, mean ± SD (measured concentration): 1070 ± 40.9 ng/mL and 1069.53 ng/mL
[2]; [16]
  stability, Accuracy (measured versus nominal concentration): 104.57%
  stability, mean ± SD (measured concentration): 5229 ± 418 ng/mL and 5228.53 ng/mL
[3]; 0.08 h
  plasma concentration (plasma concentration-time curve): 180.137
[3]; 0.5 h
  plasma concentration (plasma concentration-time curve): 247.263
[3]; 1 h
  plasma concentration (plasma concentration-time curve): 173.84
[3]; 1.5 h
  plasma concentration (plasma concentration-time curve): 81.963
[3]; 2 h
  plasma concentration (plasma concentration-time curve): 51.011
[3]; 3 h
  plasma concentration (plasma concentration-time curve): 33.992
[3]; 4 h
  plasma concentration (plasma concentration-time curve): 27.897
[3]; po, 100 mg/kg
  Vz: 0.08 ± 0.03 L
[3]; po, 352 mg/kg
  CL: 0.032 ± 0.018 L/h
  Vz: 0.061 ± 0.008 L
In vivo; 100 mg/kg
  AUC(0-inf): 418 ± 133 ng·h/mL
  AUC(0-t): 386 ± 128 ng·h/mL
  MRT last: 1.18 ± 0.255 h
  MRT inf: 1.67 ± 0.333 h
In vivo; 352 mg/kg
  AUC(0-inf): 816 ± 383 ng·h/mL
  AUC(0-t): 763 ± 345 ng·h/mL
  MRT last: 1.71 ± 0.513 h
  MRT inf: 2.54 ± 0.785 h
In vivo; 352 mg/kg, Cmax
  Cmax: 513 ± 186 ng/mL
In vivo; 352 mg/kg, Tmax
  Tmax: 0.388 ± 0.328 h
